Counter-ions that a name gives are not always drawn. Like-named read-outs stand apart in the source and are kept apart here.
Legend:
human NK2 receptor = target: T1, human NK2 receptor (Homo sapiens, UniProt P21452); assay: Test for binding to human NK2 receptor
T1 construct: expressed in transfected cells; host or cells: COS cells
T1 sequence (P21452 1-398): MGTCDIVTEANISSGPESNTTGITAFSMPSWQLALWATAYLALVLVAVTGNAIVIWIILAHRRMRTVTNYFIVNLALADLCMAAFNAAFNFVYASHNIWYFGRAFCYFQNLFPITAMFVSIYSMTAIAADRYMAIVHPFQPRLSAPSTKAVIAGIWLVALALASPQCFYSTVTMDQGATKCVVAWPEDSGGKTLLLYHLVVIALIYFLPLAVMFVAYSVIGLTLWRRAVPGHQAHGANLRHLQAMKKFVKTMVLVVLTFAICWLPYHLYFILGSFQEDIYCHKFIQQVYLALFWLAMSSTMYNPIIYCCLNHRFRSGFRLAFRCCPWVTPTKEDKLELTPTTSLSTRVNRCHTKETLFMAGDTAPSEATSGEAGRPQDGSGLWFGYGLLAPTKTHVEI
Summary of the method: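 Radioligand binding with [^3H]SR 48968 on cryopreserved COS cells expressing human NK2 receptor (5.0×10^5 cells/mL), in 50 mM Tris-HCl pH 7.4 with BSA, MnCl2 and protease inhibitors. Bound label collected on PEI-treated GF/B filters, counted by liquid scintillation; Ki derived from IC50 and radioligand Kd.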

neurokinin NK2 receptor = target: T2, neurokinin NK2 receptor (Cavia porcellus, UniProt Q64077); assay: Effect of suppressing neurokinin A-induced airway contraction (in vivo, intratracheal administration); design: species or system guinea pig; conditions: guinea pigs, intratracheal administration 60 minutes before 4 μg/kg i.v. NKA, AUC of increase in airway pressure over 10 minutes; for ED50: guinea pig, read-out: ID50 (the source's name)
T2 construct: Using healthy guinea pigs (body weight, 350 to 550 g; Hartley male guinea pigs); from tissue; host or cells: live anaesthetised Hartley male guinea pigs (airway, in vivo)
T2 sequence (Q64077 1-402): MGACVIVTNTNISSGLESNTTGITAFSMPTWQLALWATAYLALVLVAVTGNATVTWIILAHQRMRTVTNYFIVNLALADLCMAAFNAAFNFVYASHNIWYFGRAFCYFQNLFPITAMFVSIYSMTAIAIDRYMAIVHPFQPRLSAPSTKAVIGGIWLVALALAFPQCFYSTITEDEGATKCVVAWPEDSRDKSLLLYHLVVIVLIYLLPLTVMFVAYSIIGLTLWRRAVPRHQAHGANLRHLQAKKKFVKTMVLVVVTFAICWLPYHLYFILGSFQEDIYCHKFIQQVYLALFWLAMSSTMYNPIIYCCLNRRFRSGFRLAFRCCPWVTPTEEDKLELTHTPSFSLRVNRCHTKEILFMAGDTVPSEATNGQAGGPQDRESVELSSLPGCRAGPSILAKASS
Method: Using healthy guinea pigs (body weight, 350 to 550 g; Hartley male guinea pigs), the effect of suppressing airway contraction induced by neurokinin A (NKA), which is an NK2 receptor agonist, was examined by a modified method of Konzett-Roessler (Naunyn-Schmiedebergs Arch. Exp. Pathol. Pharmakol. 195, 71 [1940]) using airway pressure as an indicator.
A tracheal cannula and a venous cannula were attached to a guinea pig anesthetized with pentobarbital (50 mg/mL solution, 0.40 to 0.50 mL/body, subcutaneous administration). An arterial cannula filled with heparin-containing physiological saline (100 U/mL) was further attached, and blood pressure and heart rate were monitored via an amplifier and an instantaneous heart rate meter. Subsequently, gallamine (20 mg/body, intravenous administration) was administered to terminate spontaneous breathing, and 10 mL/kg of positive pressure breathing (Ugo-Basile Biological Research Apparatus, Cat. No. 7025) was rapidly performed at 60 times/min. The airway pressure during artificial breathing was detected with a pressure transducer (TP-200T or TP-400T; Nihon Kohden Corporation) attached to a side branch of the tracheal cannula, amplified (AP-601G; Nihon Kohden Corporation), and recorded in a recorder. After the airway pressure, blood pressure, and heart rate were stabilized, 4 μg/kg of NKA was intravenously administered from the venous cannula to induce airway contraction, and the airway pressure was measured for the following 10 minutes.
The test substance was dissolved in a 5% glucose solution, and a 0.5 mL/kg solution was intratracheally administered with an intratracheal administration apparatus (model 1A-1B; Penn-Century, Inc.) 60 minutes before stimulation with NKA.
The AUC of increase in the airway pressure over 10 minutes after administration of NKA was determined as the intensity of NKA-induced airway contraction and calculated as an ID50 value from the inhibition rate based on the value of the control group (5% glucose solution intratracheal administration group).

[1] = COS cells expressing human NK2 receptor, [3H]SR 48968 1 nM, Ki from IC50 and Kd, read-out: Ki

| SMILES | Ki (human NK2 receptor; [1]) [nM] | ED50 (neurokinin NK2 receptor) [mg/kg] | Ki (human NK2 receptor) [nM] | ID50 (neurokinin NK2 receptor) [mg/kg] |
| --- | --- | --- | --- | --- |
| CN(CCN1CCC(OC(=O)Nc2ccccc2-c2ccccc2)CC1)C(=O)CCCCCNCc1ccc(C(=O)N(C)CCCN(C)C(=O)CO[C@H]2Cc3ccccc3C23CCN(CC[C@@]2(c4ccc(F)cc4)CN(C(=O)c4cc(C(F)(F)F)cc(C(F)(F)F)c4)CO2)CC3)s1 [Example 1, 1-{2-[{6-[({5-[{3-[({[(2S)-1′-{2-[(5R)-3-[3,5-Bis(trifluoromethyl)benzoyl]-5-(4-fluorophenyl)-1,3-oxazolidin-5-yl]ethyl}-2,3-dihydrospiro[indene-1,4′-piperidin]-2-yl]oxy}acetyl)(methyl)amino]propyl}(methyl)carbamoyl]-2-thienyl}methyl)amino]hexanoyl}(methyl)amino]ethyl}piperidin-4-yl biphenyl-2-ylcarbamate] | 0.57 | 0.0049 |  |  |
| CN(CCN1CCC(OC(=O)Nc2ccccc2-c2ccccc2)CC1)C(=O)CCCCCNc1ccc(C(=O)N(C)CCCN(C)C(=O)CO[C@H]2Cc3ccccc3C23CCN(CC[C@@]2(c4ccc(F)cc4)CN(C(=O)c4cc(C(F)(F)F)cc(C(F)(F)F)c4)CO2)CC3)nc1 [Example 9, 1-(2-{[6-({6-[{3-[({[(2S)-1′-{2-[(5R)-3-[3,5-Bis(trifluoromethyl)benzoyl]-5-(4-fluorophenyl)-1,3-oxazolidin-5-yl]ethyl}-2,3-dihydrospiro[indene-1,4′-piperidin]-2-yl]oxy}acetyl)(methyl)amino]propyl}(methyl)carbamoyl]pyridin-3-yl}amino)hexanoyl](methyl)amino}ethyl)piperidin-4-yl biphenyl-2-ylcarbamate] | 0.66 | 0.0374 |  |  |
| CN(CCN1CCC(OC(=O)Nc2ccccc2-c2ccccc2)CC1)C(=O)CCCCCNc1ncc(C(=O)N(C)CCCN(C)C(=O)CO[C@H]2Cc3ccccc3C23CCN(CC[C@@]2(c4ccc(F)cc4)CN(C(=O)c4cc(C(F)(F)F)cc(C(F)(F)F)c4)CO2)CC3)cn1 [Example 14, 1-(2-{[6-({5-[{3-[({[(2S)-1′-{2-[(5R)-3-[3,5-Bis(trifluoromethyl)benzoyl]-5-(4-fluorophenyl)-1,3-oxazolidin-5-yl]ethyl}-2,3-dihydrospiro[indene-1,4′-piperidin]-2-yl]oxy}acetyl)(methyl)amino]propyl}(methyl)carbamoyl]pyrimidin-2-yl}amino)hexanoyl](methyl)amino}ethyl)piperidin-4-yl biphenyl-2-ylcarbamate trihydrochloride] |  | 0.0284 | 0.67 |  |
| CN(CCN1CCC(OC(=O)Nc2ccccc2-c2ccccc2)CC1)C(=O)CCCCCNc1ccc(C(=O)N(C)CCN(C)C(=O)CO[C@H]2Cc3ccccc3C23CCN(CC[C@@]2(c4ccc(F)cc4)CN(C(=O)c4cc(C(F)(F)F)cc(C(F)(F)F)c4)CO2)CC3)cc1 [Example 15, 1-(2-{[6-({4-[{2-[({[(2S)-1-{2-[(5R)-3-[3,5-Bis(trifluoromethyl)benzoyl]-5-(4-fluorophenyl)-1,3-oxazolidin-5-yl]ethyl}-2,3-dihydrospiro[indene-1,4′-piperidin]-2-yl]oxy}acetyl)(methyl)amino]ethyl}(methyl)carbamoyl]phenyl}amino)hexanoyl](methyl)amino}ethyl)piperidin-4-yl biphenyl-2-ylcarbamate] | 0.91 |  |  | 0.0377 |
| CN(CCN1CCC(OC(=O)Nc2ccccc2-c2ccccc2)CC1)C(=O)CCCCCNc1ccc(C(=O)N(C)CCN(C)C(=O)CO[C@H]2Cc3ccccc3C23CCN(CC[C@@]2(c4ccc(F)cc4)CN(C(=O)c4cc(C(F)(F)F)cc(C(F)(F)F)c4)CO2)CC3)cc1 [Example 16, 1-(2-{[6-({4-[{2-[({[(2S)-1′-{2-[(5R)-3-[3,5-Bis(trifluoromethyl)benzoyl]-5-(4-fluorophenyl)-1,3-oxazolidin-5-yl]ethyl}-2,3-dihydrospiro[indene-1,4′-piperidin]-2-yl]oxy}acetyl)(methyl)amino]ethyl}(methyl)carbamoyl]phenyl}amino)hexanoyl](methyl)amino}ethyl)piperidin-4-yl biphenyl-2-ylcarbamate trihydrochloride] |  | 0.0286 | 0.49 |  |
| Cc1cc(NCCCCCC(=O)N(C)CCN2CCC(OC(=O)Nc3ccccc3-c3ccccc3)CC2)ccc1C(=O)N(C)CCCN(C)C(=O)CO[C@H]1Cc2ccccc2C12CCN(CC[C@@]1(c3ccc(F)cc3)CN(C(=O)c3cc(C(F)(F)F)cc(C(F)(F)F)c3)CO1)CC2 [Example 18, 1-(2-{[6-({4-[{3-[({[(2S)-1′-{2-[(5R)-3-[3,5-Bis(trifluoromethyl)benzoyl]-5-(4-fluorophenyl)-1,3-oxazolidin-5-yl]ethyl}-2,3-dihydrospiro[indene-1,4′-piperidin]-2-yl]oxy}acetyl)(methyl)amino]propyl}(methyl)carbamoyl]-3-methylphenyl}amino)hexanoyl](methyl)amino}ethyl)piperidin-4-yl biphenyl-2-ylcarbamate trihydrochloride] |  | 0.0453 | 0.42 |  |
| CN(CCN1CCC(OC(=O)Nc2ccccc2-c2ccccc2)CC1)C(=O)CCCCCNc1ccc(C(=O)N(CCCN(C)C(=O)CO[C@H]2Cc3ccccc3C23CCN(CC[C@@]2(c4ccc(F)cc4)CN(C(=O)c4cc(C(F)(F)F)cc(C(F)(F)F)c4)CO2)CC3)C2CC2)cc1 [Example 25, 1-(2-{[6-({4-[{3-[({[(2S)-1′-{2-[(5R)-3-[3,5-Bis(trifluoromethyl)benzoyl]-5-(4-fluorophenyl)-1,3-oxazolidin-5-yl]ethyl}-2,3-dihydrospiro[indene-1,4′-piperidin]-2-yl]oxy}acetyl)(methyl)amino]propyl}(cyclopropyl)carbamoyl]phenyl}amino)hexanoyl](methyl)amino}ethyl)piperidin-4-yl biphenyl-2-ylcarbamate trihydrochloride] |  | 0.0727 | 0.77 |  |
| CN(CCN1CCC(OC(=O)Nc2ccccc2-c2ccccc2)CC1)C(=O)COCCCNc1ccc(C(=O)N(C)CCCN(C)C(=O)CO[C@H]2Cc3ccccc3C23CCN(CC[C@@]2(c4ccc(F)cc4)CN(C(=O)c4cc(C(F)(F)F)cc(C(F)(F)F)c4)CO2)CC3)cc1 [Example 27, 1-{2-[{[3-({4-[{3-[({[(2S)-1′-{2-[(5R)-3-[3,5-Bis(trifluoromethyl)benzoyl]-5-(4-fluorophenyl)-1,3-oxazolidin-5-yl]ethyl}-2,3-dihydrospiro[indene-1,4′-piperidin]-2-yl]oxy}acetyl)(methyl)amino]propyl}(methyl)carbamoyl]phenyl}amino)propoxy]acetyl}(methyl)amino]ethyl}piperidin-4-yl biphenyl-2-ylcarbamate trihydrochloride] |  | 0.0135 | 0.76 |  |
